Reference: patent US20070232492A1, “Herbicidal Composition” (Ishihara Sangyo Kaisha, LTD., priority 2004, published 2007)
Like-named read-outs stand apart in the source and are kept apart here.

Key:
Assay type in all cases: in vivo
[1] = system: barnyardgrass (Echinochloa oryzicola vasing); experiment: Growth inhibition of barnyardgrass in paddy soil pots, foliar application with a small sprayer, visual rating and Colby expected value; conditions: 3.0 to 3.3 leaf stage, 21 days after application
From the text: (§1) When the herbicidal activity in a case where two active ingredients are combined, is larger than the simple sum of the respective herbicidal activities of the two active ingredients (the expected activity), it is called a synergistic effect. The activity expected by the combination of two active ingredients can be calculated as follows (Colby S. R., “Weed”, vol. 15, p. 20-22, 1967). E=p+q−(p×q÷100) where p: growth inhibition rate when treated with x (g/a) of herbicide X,
(§2) q: growth inhibition rate when treated with y (g/a) of herbicide Y,
(§3) E: growth inhibition rate expected when treated with x (g/a) of herbicide X and y (g/a) of herbicide Y.
(§4) Namely, when the actual growth inhibition rate (observed value) is larger than the growth inhibition rate by the above calculation (expected value), the activity by the combination can be regarded as showing a synergistic effect.
(§5) Growth inhibition rate (%)=0% (equivalent to the non-treated area) to 100% (complete kill)
Paddy field soil was put into a 1/10,000 are pot, and seeds of barnyardgrass (Echinochloa oryzicola vasing) were sown and left to stand under an irrigated condition with a water depth of 3.5 cm. When barnyardgrass reached 3.0 to 3.3 leaf stage, a wettable powder of compound A2 and a water-based suspension of compound (B11.1) were, respectively, diluted with water in an amount of 1,000 liter/ha, followed by foliar application with a small sprayer. The state of growth was visually observed 21 days after application, and evaluation and calculation were carried out in the same manner as in the above Test Example 1.

[2] = system: rice (Oryza sativa var. Nihonbare); experiment: Growth inhibition (phytotoxicity) of transplanted rice by compound A2 with or without compound D, application under submerged condition, visual rating 7 and 21 days after application; conditions: Compound A2 60 g/ha, Compound D not applied, applied 5 days after implantation
From the text: as §5
Paddy field soil was put into a 1/500,000 hectare pot, harrowed and irrigated with a depth of 3 cm. On the next day, rice (Oryza sativa var. Nihonbare) at 2 leaf stage was implanted with a depth of 3 cm. A wettable powder of compound A2 and a wettable powder of compound D were, respectively, diluted with water and applied under submerged condition 5 days after implantation so that the active ingredients became the prescribed amounts, respectively. The state of growth of rice was visually observed 7 days and 21 days after application, and the growth inhibition rate (%) was evaluated in the same is manner as in the above Test Example 1.

[3] = system: barnyardgrass (Echinochloa oryzicola vasing); experiment: Growth inhibition of barnyardgrass in paddy soil pots, application under submerged condition, visual rating (observed value) and Colby expected value; conditions: for inhibition at 150 g/ha / inhibition at 300 g/ha / inhibition at 100 g/ha / inhibition at 200 g/ha: Echinochloa oryzicola, soil, 504 h; for inhibition at 150 g/ha: read-out: Growth inhibition rate (%) Observed, 1.5 g/a; for inhibition at 100 g/ha: 1 g/a; for inhibition at 100 g/ha / inhibition at 200 g/ha: read-out: Growth inhibition rate (%) Observed; for inhibition at 200 g/ha: 2 g/a
How it was run: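 Barnyardgrass (Echinochloa oryzicola vasing) seeds were sown in paddy field soil in 1/10,000 are pots and kept irrigated at a water depth of 3.5 cm. Wettable powders of the active ingredients were diluted with water and applied under submerged conditions at the prescribed amounts. Growth was visually scored from 0% (as untreated) to 100% (complete kill), and expected values were calculated with Colby's formula.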

[4] = system: false pimpernel (Lindernia pyxidaria), abunome (Dopatrium junceum), long stem waterwort (Elatine triandra SCHK.) and toothcup (Rotala india); experiment: Growth inhibition of mixed broadleaf paddy weeds in paddy soil pots, application under submerged condition, visual rating and Colby expected value; conditions: 0.22 g/a
From the text: as §1, §2, §3, §4, §5
(§6) Paddy field soil was put into a 1/1,700 are pot, and mixed seeds of false pimpernel (Lindernia pyxidaria), abunome (Dopatrium junceum), long stem waterwort (Elatine triandra SCHK.) and toothcup (Rotala india) were sown and left to stand under an irrigated condition with a water depth of 3.5 cm. When false pimpernel reached one leaf-pair stage, wettable powders of compound A2 and compound (B1.2) were, respectively, diluted with water and applied under submerged condition so that the active ingredients became the prescribed amounts, respectively. The state of growth was visually observed 21 days after application, and evaluation and calculation were carried out in the same manner as in the above Test Example 1.
(§7) Paddy field soil was put into a 1/1,700 are pot, and mixed seeds of false pimpernel (Lindernia pyxidaria), abunome (Dopatrium junceum), long stem waterwort (Elatine triandra SCHK.) and toothcup (Rotala india) were sown and left to stand under an irrigated condition with a water depth of 3.5 cm. When false pimpernel reached two leaf-pair stage, a wettable powder of compound A2 and an emulsifiable concentrate of compound (B8.1) were, respectively, diluted with water and applied under submerged condition so that the active ingredients became the prescribed amounts, respectively. The state of growth was visually observed 22 days after application, and evaluation and calculation were carried out in the same manner as in the above Test Example 1.

[5] = as above; conditions: mixed broadleaf paddy weeds, soil, 528 h, read-out: Growth inhibition rate (%) Observed
From the text: as §1, §2, §3, §4, §5, §6, §7

[6] = 2.0 to 2.5 leaf stage, 21 days after application
[7] = 2.8 to 3.2 leaf stage, 21 days after application, Test Examples 39-43

**Q.** Which “Growth inhibition rate (%) Observed” value ([1]; 0.083 g/a) does the source give for `COCC(=O)OC(c1ncccc1S(=O)(=O)NC(=O)Nc1nc(OC)cc(OC)n1)C(C)F` (stereo not drawn) [Compound A2, flucetosulfuron] here?
**A.** Its value is 23%.

**Q.** What about the “Growth inhibition rate (%) Observed” value ([1]; 0.11 g/a) of the same molecule?
**A.** Its value is 50%.

**Q.** And the “Growth inhibition rate (%) Observed” value ([1]; 0.165 g/a)?
**A.** The value was 60%.

**Q.** And the “Growth inhibition rate (%) (average) 7 days” value ([2]; 7 days after application)?
**A.** The value was 23%.

**Q.** And the “Growth inhibition rate (%) (average) 21 days” value ([2]; 21 days after application)?
**A.** Its value is 33%.

**Q.** And the “Growth inhibition rate (%) Observed” value ([3]; 0.055 g/a, 2.8 to 3.2 leaf stage, 21 days after application)?
**A.** Its value is 55%.

**Q.** And the “Growth inhibition rate (%) Observed” value ([3]; 0.083 g/a, 2.1 to 3.2 leaf stage, 21 days after application)?
**A.** Its value is 90%.

**Q.** And the “Growth inhibition rate (%) Observed” value ([3]; 0.083 g/a, 2.1 to 3.2 leaf stage, 22 days after application)?
**A.** Its value is 90%.

**Q.** What about the “Growth inhibition rate (%) Observed” value ([3]; 0.083 g/a, 2.5 to 3.0 leaf stage, 22 days after application) of the same molecule?
**A.** The value was 67%.

**Q.** And the “Growth inhibition rate (%) Observed” value ([3]; 0.083 g/a, 2.8 to 3.2 leaf stage, 19 days after application, Test Examples 62-65)?
**A.** The value was 55%.

**Q.** And the “Growth inhibition rate (%) Observed” value ([3]; 0.083 g/a, 2.8 to 3.2 leaf stage, 21 days after application)?
**A.** Its value is 65%.

**Q.** What about the “Growth inhibition rate (%) Observed” value ([3]; 0.083 g/a, 2.8 to 3.2 leaf stage, 21 days after application, Test Examples 39-43) of the same molecule?
**A.** The value was 55%.

**Q.** What about the “Growth inhibition rate (%) Observed” value ([3]; 0.11 g/a, 2.0 to 2.5 leaf stage, 21 days after application) of the same molecule?
**A.** The value was 90%.

**Q.** What about the “Growth inhibition rate (%) Observed” value ([3]; 0.11 g/a, 2.1 to 3.2 leaf stage, 21 days after application) of the same molecule?
**A.** The value was 92%.

**Q.** And the “Growth inhibition rate (%) Observed” value ([3]; 0.11 g/a, 2.1 to 3.2 leaf stage, 22 days after application)?
**A.** Its value is 92%.

**Q.** What about the “Growth inhibition rate (%) Observed” value ([3]; 0.11 g/a, 2.4 to 3.2 leaf stage, 29 days after application, Test Example 45) of the same molecule?
**A.** The value was 96%.

**Q.** What about the “Growth inhibition rate (%) Observed” value ([3]; 0.11 g/a, 2.5 to 3.0 leaf stage, 22 days after application) of the same molecule?
**A.** Its value is 83%.

**Q.** What about the “Growth inhibition rate (%) Observed” value ([3]; 0.11 g/a, 2.8 to 3.2 leaf stage, 19 days after application, Test Examples 62-65) of the same molecule?
**A.** The value was 68%.

**Q.** And the “Growth inhibition rate (%) Observed” value ([3]; 0.11 g/a, 2.8 to 3.2 leaf stage, 21 days after application)?
**A.** The value was 75%.

**Q.** And the “Growth inhibition rate (%) Observed” value ([3]; 0.11 g/a, 2.8 to 3.2 leaf stage, 21 days after application, Test Examples 39-43)?
**A.** The value was 70%.

**Q.** What about the “Growth inhibition rate (%) Observed” value ([3]; 0.165 g/a, 2.0 to 2.5 leaf stage, 21 days after application) of the same molecule?
**A.** Its value is 90%.

**Q.** And the “Growth inhibition rate (%) Observed” value ([3]; 0.165 g/a, 2.1 to 3.2 leaf stage, 21 days after application)?
**A.** Its value is 96%.

**Q.** And the “Growth inhibition rate (%) Observed” value ([3]; 0.165 g/a, 2.1 to 3.2 leaf stage, 22 days after application)?
**A.** Its value is 96%.

**Q.** What about the “Growth inhibition rate (%) Observed” value ([3]; 0.165 g/a, 2.5 to 3.0 leaf stage, 22 days after application) of the same molecule?
**A.** Its value is 89%.

**Q.** And the “Growth inhibition rate (%) Observed” value ([3]; 0.165 g/a, 2.8 to 3.2 leaf stage, 19 days after application, Test Examples 62-65)?
**A.** The value was 73%.

**Q.** What about the “Growth inhibition rate (%) Observed” value ([3]; 8.3 g/ha, 3 leaf stage, 22 days after application, Test Example 36) of the same molecule?
**A.** Its value is 67%.

**Q.** What about the “Growth inhibition rate (%) Observed” value ([3]; 8.3 g/ha, 3 leaf stage, 22 days after application, Test Example 38) of the same molecule?
**A.** The value was 83%.

**Q.** What about the “Growth inhibition rate (%) Observed” value ([3]; 11 g/ha, 3 leaf stage, 22 days after application, Test Example 36) of the same molecule?
**A.** The value was 83%.

**Q.** And the “Growth inhibition rate (%) Observed” value ([3]; 11 g/ha, 3 leaf stage, 22 days after application, Test Example 38)?
**A.** The value was 96%.

**Q.** What about the “Growth inhibition rate (%) Observed” value ([3]; 16.5 g/ha, 3 leaf stage, 22 days after application, Test Example 36) of the same molecule?
**A.** Its value is 89%.

**Q.** What about the “Growth inhibition rate (%) Observed” value ([3]; 16.5 g/ha, 3 leaf stage, 22 days after application, Test Example 38) of the same molecule?
**A.** Its value is 98%.

**Q.** What about the “Growth inhibition rate (%) Observed” value ([4]; false pimpernel one leaf-pair stage, 21 days after application) of the same molecule?
**A.** The value was 90%.

**Q.** And the “Growth inhibition rate (%) Observed” value ([4]; false pimpernel two leaf-pair stage, 22 days after application)?
**A.** Its value is 65%.

**Q.** Which inhibition at 150 g/ha [3, 6] does the source give for `CCS(=O)(=O)Oc1ccc2c(c1)C(C)(C)CO2` [Compound (B8.1), benfuresate] here?
**A.** Its inhibition at 150 g/ha is 10%.

**Q.** And the inhibition at 150 g/ha ([3]; 3.0 to 3.3 leaf stage, 21 days after application)?
**A.** The inhibition at 150 g/ha was 0%.

**Q.** And the inhibition at 300 g/ha ([3]; read-out: Growth inhibition rate (%) Observed, 3 g/a, 2.0 to 2.5 leaf stage, 21 days after application)?
**A.** Its inhibition at 300 g/ha is 33%.

**Q.** What about the inhibition at 300 g/ha ([3]; read-out: Growth inhibition rate (%) Observed, 3.0 g/a, 3.0 to 3.3 leaf stage, 21 days after application) of the same molecule?
**A.** The inhibition at 300 g/ha was 0%.

**Q.** What about the inhibition at 1200 g/ha [5] of the same molecule?
**A.** The inhibition at 1200 g/ha was 70%.

**Q.** Which inhibition at 100 g/ha [3, 6] does the source give for `CCCOCCN(C(=O)CCl)c1c(CC)cccc1CC` [Compound (B3.1), pretilachlor] here?
**A.** The inhibition at 100 g/ha was 17%.

**Q.** And the inhibition at 100 g/ha [3, 7]?
**A.** The inhibition at 100 g/ha was 0%.

**Q.** What about the inhibition at 200 g/ha [3, 6] of the same molecule?
**A.** The inhibition at 200 g/ha was 33%.

**Q.** And the inhibition at 200 g/ha [3, 7]?
**A.** The inhibition at 200 g/ha was 0%.
